# Test results from patent US9521845B2, “Beta-lactones as antibacterial agents” (LUDWIG-MAXIMILIANS-UNIVERSITÄT-MÜNCHEN, priority 2008, dated 2016).
# Entries after “also recorded” stand apart in the source; their conditions may differ.
# What was measured:
# [1] = molecular target: T1, S-formylglutathione hydrolase (SFGH) (Escherichia coli, UniProt P51025); experiment: Substrate inhibition assay (p-nitrophenylacetate), IC50 determination; type: biochemical; conditions: beta-lactone G2; substrate 2.4 mM, enzyme 30 nM; estimated
# T1 construct: made in house; host or cells: E. coli BL21
# Experimental: SFGH mediated […] of the p-nitrophenylacetate leads to the release of p-nitrophenol which can be monitored at 400 nm. Various concentrations of beta-lactone G2 were added to a solution containing the substrate (2.4 mM) and enzyme (30 nM). Reactions were started by addition of the enzyme and subsequently monitored for 6 min. The mean average slopes of absorption (out of three independent experiments) versus beta-lactone concentration were plotted and the concentration of 50% inhibition (IC50) was estimated.
# lipase (Lip) = experiment: ABPP probe dose down in proteome, lipase labeling; type: binding; conditions: L. welshimeri proteome, concentration range 10 μM to 5 nM
# Experimental: (§1) To estimate the strength of probe interactions with proteins in the proteome, we compared the reactivity profiles of selected beta-lactones across a broad concentration range from 10 μM to 5 nM.
# (§2) Proteome samples were adjusted to a final concentration of 1 mg protein/mL by dilution in PBS prior to probe labeling. Experiments for visualization by 1D SDS-PAGE were carried out in 43 μL total volume and those for affinity enrichment in 1892 μL total volume, such that once CC reagents were added, the total reaction volume was 50 μL and 2 mL, respectively. Reactions were initiated by addition of the probe and allowed to incubate for 60 min at room temperature. For heat controls the proteome was denatured with 1 μL of 43% SDS at 95° C. for 6 min and cooled to room temperature before the probe was applied. Following incubation, reporter tagged-azide reagents (13 μM rhodamine-azide for analytical or 20 μM rhodamine-biotin-azide for preparative scale) were added followed by 1 mM TCEP and 100 μM ligand. Samples were gently vortexed and the cycloaddition initiated by the addition of 1 mM CuSO4. The reactions were incubated at room temperature for 1 h (Speers, J. Amer. Chem. Soc. 125 (2003), 4686).
# [2] = system: lipase/acylhydrolase (LipAc); experiment: ABPP probe dose down in proteome, lipase/acylhydrolase labeling; type: binding; conditions: L. welshimeri proteome
# Experimental: as §1, §2
# [3] = molecular target: T2, Aldehyde dehydrogenase B (ADB) (Escherichia coli, UniProt P37685); experiment: ABPP labeling of E. coli cytosol; type: binding; conditions: 100 nM probe concentration, no other off targets
# T2 construct: endogenous in cells; host or cells: Escherichia coli K12 lysate, cytosol fraction
# Experimental: as §1, §2
# [4] = system: β-Ketoacyl acyl carrier protein synthase II (KAS II); experiment: ABPP labeling of bacterial proteomes, KAS II; type: binding, L. welshimeri, B. subtilis; conditions: 50 μM probe, FIGS. 9A and 9B
# Source text: The library of beta-lactones to be tested comprised compounds with aliphatic or aromatic substitutions varying in length and branching. To evaluate the target selectivity, the beta-lactones were screened against several gram-positive and gram-negative bacterial proteomes including Pseudomonas putida, Listeria welshimeri, Bacillus licheniformis, Bacillus subtilis and Escherichia coli, which are phylogenetically related to pathogenic strains. In addition, mouse liver cytosol was included as an eukaryotic reference proteome. Initial labeling experiments were carried out by adding individual probes at 50 μM concentration to the proteome which is sufficient to achieve full saturation of most targets. […] As an example, labeling of L. welshimeri cytosolic and membrane proteomes as well as B. subtilis cytosolic proteome with a subset of the most complementary probes is shown in FIGS. 9A and 9B. […] Most of the targeted proteins were of low abundance as shown by the direct comparison of the relative intensities observed with Coomassie staining vs. fluorescence scanning (FIG. 11).
# Proteome samples were adjusted to a final concentration of 1 mg protein/mL by dilution in PBS prior to probe labeling. […]
# [5] = system: LLO haemolytic activity of L. monocytogenes EGDe; experiment: LLO haemolytic activity testing of culture supernatants; type: cell-based, Listeria monocytogenes EGDe; conditions: Listeria monocytogenes, Erythrocyte; cultures grown 16 h with lactone, sheep red blood cells; read-out: EC50 of reduction of LLO haemolytic activity
# Experimental: Overnight cultures of L. monocytogenes EGDe were harvested by centrifugation and resuspended in an equal volume of fresh BHB medium. In 1.5 mL Eppendorf tubes, 400 μL of BHB medium were inoculated with 4 μL of the resuspended Listeria culture and 4 μL of a corresponding beta-lactone stock in DMSO. The final concentrations were 800 μM, 400 μM, 200 μM, 100 μM and DMSO as control. The amount of DMSO in all tests was 1% of the medium. After mixing, the test tubes were incubated under continuous shaking at 200 rpm at 37° C. for 16 h. Then, cells were centrifuged and the supernatants filtered sterile by passing them through a 0.2 μm pore size filter. Haemolytic activity of LLO in the culture supernatants was quantitatively investigated according to a method described in J. Food Safety 1998, 18: 197-203 (incorporated herein by reference) with some modifications. In Nunclon™ 96-well plates with round shaped wells 100 μL of serial dilutions of the supernatants in PBS were added per well and incubated with 100 μL of 3% SRBC (sheep red blood cells) resuspended in PBS for 15 min at 37° C. under gentle shaking. The 96-well plates were centrifuged at 600 rpm for 5 min and the minimum dilution at which intact blood cells began to form a pellet was recorded. Controls with no lactone were set 100%. Buffer only controls and pure BHB medium yielded no haemolysis.
# HeLa cells = experiment: Cytotoxicity, WST-1 cell proliferation test; type: cell-based; conditions: up to a concentration of 1 mM (300 mg/L), 24 h
# Experimental: Cytotoxicity was determined in HeLa cells using the WST-1 cell proliferation test. Trypsinated cells were seeded at 100 μL aliquots with antibiotic free medium in Nunclon™ flat-bottom 96-well plates with 1·10^4 cells per well. After incubation of HeLa cells for 24 h, the medium was replaced by antibiotic free test medium containing 1 mM, 100 μM and 10 μM beta-lactone U1, DMSO as non-toxic control and 1% Triton X-100 as 100% lethal control. The DMSO content in all tests was kept at 1%. HeLa cells with test medium were incubated for 24 h, then 10 μL WST-1 reagent were added and after 30 min incubation absorption at 450 nm was read with 630 nm reference wavelength using a TECAN GENios Pro microplate reader.
# [6] = system: Listeria monocytogenes EGDe in the mouse macrophage-like cell line J774; experiment: Infection of J774 cells and intracellular growth assay; type: cell-based; conditions: 1 mM, 3 h and 5 h post infection, vs DMSO
# Experimental: In a Nunclon™ 96-well plate with flat-bottom 1·10^5 J774 cells per well were seeded in 100 μL 90% DMEM medium with 10% FBS without antibiotics. After 24 h incubation the resulting monolayer was washed once with 100 μL PBS and 100 μL of L. monocytogenes EGDe suspension in 90% DMEM medium with 10% FBS without antibiotics was added either with 1 mM beta-lactone U1 or DMSO. L. monocytogenes was grown in an over night culture with beta-lactone/DMSO and resuspended to approximately 10^6 cells/mL resulting in a multiplicity of infection (MOI) of 0.5. Macrophages were infected for 15 min at 37° C. after 15 min bacterial adherence on ice, as described in Molecular Microbiol. 2000, 35(6): 1286-1294 (incorporated herein by reference). Thereafter, the infected monolayer were washed two times with 100 μL PBS each and fresh 90% DMEM medium with 10% FBS containing 10 μg/mL gentamicin and 1 mM beta-lactone U1 or DMSO was added. After 0, 3 and 5 h post infection, the monolayers were washed again with two times 100 μL PBS and eukaryotic cells lysed by the addition of two times 250 μL of 0.05% solution of Triton X-100 in sterile deionised water. Intracellular bacteria were quantified by colony counting of serial dilutions plated on Listeria-agar (Ottaviani & Agosti Agar, Heipha Diagnostika, Eppelheim, Germany).
# T1 sequence (P51025 whole entry): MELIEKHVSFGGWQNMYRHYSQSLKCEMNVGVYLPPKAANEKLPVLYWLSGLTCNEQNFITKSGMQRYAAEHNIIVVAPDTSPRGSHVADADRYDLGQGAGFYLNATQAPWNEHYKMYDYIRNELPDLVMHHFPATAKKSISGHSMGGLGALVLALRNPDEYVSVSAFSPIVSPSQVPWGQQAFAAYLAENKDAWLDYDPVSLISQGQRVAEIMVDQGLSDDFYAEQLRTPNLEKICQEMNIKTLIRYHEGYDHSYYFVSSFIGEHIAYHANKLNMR
# T2 sequence (P37685 whole entry): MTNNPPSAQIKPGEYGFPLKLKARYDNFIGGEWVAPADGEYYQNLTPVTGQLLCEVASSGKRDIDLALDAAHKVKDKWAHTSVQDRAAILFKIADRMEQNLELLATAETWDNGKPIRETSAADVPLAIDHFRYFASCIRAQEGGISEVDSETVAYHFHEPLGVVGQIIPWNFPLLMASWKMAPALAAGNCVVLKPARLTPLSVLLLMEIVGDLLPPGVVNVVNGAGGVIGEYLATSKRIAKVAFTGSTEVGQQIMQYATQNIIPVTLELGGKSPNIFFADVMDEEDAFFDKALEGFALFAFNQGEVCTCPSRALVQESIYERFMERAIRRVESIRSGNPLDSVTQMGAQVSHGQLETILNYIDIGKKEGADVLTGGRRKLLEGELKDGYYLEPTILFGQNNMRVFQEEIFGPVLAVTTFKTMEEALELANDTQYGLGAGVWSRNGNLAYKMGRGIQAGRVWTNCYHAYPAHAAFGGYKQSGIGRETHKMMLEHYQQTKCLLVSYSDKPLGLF
SMILES,IC50 [1],probe concentration down to which lipase is labeled (lipase (Lip)),interaction with lipase/acylhydrolase (LipAc) [2],ADB labeling preference [3],KAS II labeling [4],EC50 [5],cytotoxicity to HeLa cells (HeLa cells),lower growth in the eukaryotic cells [6]
"C#CCCCC1OC(=O)C1CCCC (stereo not drawn) [G2, trans-3-butyl-4-(4-pentyn-1-yl)oxetan-2-one]",5 µM,20 nM,does not exhibit strong interaction,strong preference,labeled,–,–,–
C=CCCCCCCCC1C(=O)OC1CCc1ccccc1 (centres unmarked) [U1],–,–,–,–,–,< 100 µM,non-cytotoxic; also recorded: Neither microscopic alterations of cell morphology nor significant inhibition of cell proliferation,approximately 76%
